Consider one compound from patent publication US20230127944A1, “BROAD-SPECTRUM CARBAPENEMS” (priority 2019, published 2023).

A word on the MIC: it is the lowest concentration found to suppress growth.

Each structure is given as a SMILES string.

For the experiment, the system named is E. coli ATCC 25922 (wild-type/QC strain). The experiment is described as follows: broth microdilution MIC assay, E. coli 25922. The note with it: Escherichia coli, ATCC25922; read-out: MIC, E. coli 25922. The class given is cell-based. Summed up: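 CLSI microdilution; MH broth + divalent cations; 5×10^5 CFU/mL; 2-fold series; 37° C, 16-20 h; visual MIC.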
(In general: Broth dilution looks for growth in wells or tubes with falling amounts of substance.)

For `C[C@@H](O)[C@H]1C(=O)N2C(C(=O)O)=C(S[C@@H]3CCN(C[C@H]4CC[C@H](NC(=N)N)CC4)C3)[C@H](C)[C@H]12` [Example 28, (4R,5S,6S)-3-(((R)-1-(((1R,4R)-4-guanidinocyclohexyl)methyl)pyrrolidin-3-yl)thio)-6-((R)-1-hydroxyethyl)-4-methyl-7-oxo-1-azabicyclo[3.2.0]hept-2-ene-2-carboxylic acid], the MIC was less than 1 µg/mL.
